The subject of one series is Myzus persicae. The series can be described thus: Soil Irrigation Test on Myzus persicae. As to conditions: 144 h, 100 ppm solution, 10 ml soil irrigation of cabbage seedlings, greenhouse, 6 days after release of insects. The series is classed as in vivo. How it is done:
10% emulsifiable concentrates of compounds of the present invention were diluted with tap water to obtain 100 ppm solutions. The soil around the bases of cabbage seedlings (at the 2.5 true leaf stage) planted in plastic cups was irrigated with 10 ml of the solutions, and the cups were placed in a greenhouse. One day after the irrigation, adults of Myzus persicae were released at a ratio of 20 insects per seedling, and the seedlings were incubated in the greenhouse. 6 Days after the release of the insects, living insects were counted, and the control value was calculated from the following equation.
Control value (%)={1−(Cb×Tai)/(Cai×Tb)}×100
Cb: the number of insects in a non-treated area before treatment
Cai: the final number of living insects in a non-treated area
Tb: the number of insects in a treated area before treatment
Tai: the final number of living insects in a treated area

The structures appear in SMILES notation.

As a reminder, the pest or weed control is how far the test organism was held down. For orientation: melting point means the temperature, or range, at which the solid turns liquid. On to `CN(C(=O)CCS(C)(=O)=O)c1cn(-c2cccnc2)nc1Cl` [1-052, N-{3-chloro-1-(pyridin-3-yl)-1H-pyrazol-4-yl}-N-methyl-3-(methylsulfonyl)propanamide], for which the melting point was in the range of 90 to 91 °C. In the series on Myzus persicae, this molecule showed a pest or weed control at 100 ppm of at least 90%.
`CSCC1CCN(c2cn(-c3cccnc3)nc2Cl)C1=O` (stereo not drawn) [1-141, 1-{3-chloro-1-(pyridin-3-yl)-1H-pyrazol-4-yl}-3-(methylthiomethyl)pyrrolidin-2-one] showed a melting point of 83 to 84 °C.
The molecule `CCSC(C)C(=O)N(CC)c1cn(-c2cccnc2)nc1Cl` (stereo not drawn) [1-118, N-{3-chloro-1-(pyridin-3-yl)-1H-pyrazol-4-yl}-N-ethyl-2-(ethylthio)propanamide] displayed a melting point of 65 to 66 °C. This molecule had a pest or weed control at 100 ppm in the series with Myzus persicae of at least 90%.
The molecule `O=C1CCCCN1c1cnn(-c2cccnc2)c1` [1-034, 1-{1-(pyridin-3-yl)-1H-pyrazol-4-yl}piperidin-2-one] returned a melting point of 123 to 124 °C.
